Laboratory results: ChEMBL document CHEMBL4699602, “Stapled and Xenopus Glucagon-Like Peptide 1 (GLP-1)-Based Dual GLP-1/Gastrin Receptor Agonists with Improved Metabolic Benefits in Rodent Models of Obesity and Diabetes” (J Med Chem, 2020)
Where a SMILES comes first, the peptide text is derived from it. [ ]: non-standard residue; d: D form. ξ: configuration not given here. αMeH = C[C@](N)(Cc1c[nH]cn1)C(=O)O; Thr(3ξ) = CC(O)[C@H](N)C(=O)O; Aib = CC(C)(N)C(=O)O

Experiments:
[1] = target: T1, Glucagon-like peptide 1 receptor (Homo sapiens, UniProt P43220); assay: Agonist activity at human GLP-1R expressed in HEK293 cells assessed as stimulation of cAMP accumulation incubated for 20 mins in presence of 4.4% HSA; format: functional, cell-based
T1 sequence (P43220 whole entry): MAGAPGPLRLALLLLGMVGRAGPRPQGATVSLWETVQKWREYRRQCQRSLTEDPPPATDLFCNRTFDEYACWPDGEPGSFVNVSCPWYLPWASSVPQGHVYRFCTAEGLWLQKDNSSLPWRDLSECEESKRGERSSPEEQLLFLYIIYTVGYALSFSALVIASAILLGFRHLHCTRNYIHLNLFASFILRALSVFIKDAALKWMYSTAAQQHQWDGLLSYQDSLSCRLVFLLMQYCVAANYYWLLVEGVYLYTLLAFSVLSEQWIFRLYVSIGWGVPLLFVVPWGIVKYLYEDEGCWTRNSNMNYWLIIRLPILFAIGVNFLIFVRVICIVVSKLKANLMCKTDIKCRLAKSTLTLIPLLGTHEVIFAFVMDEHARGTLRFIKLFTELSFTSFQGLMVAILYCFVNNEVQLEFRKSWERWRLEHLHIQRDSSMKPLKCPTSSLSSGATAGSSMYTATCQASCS

[2] = target: T1, Glucagon-like peptide 1 receptor; assay: Agonist activity at human GLP-1R expressed in HEK293 cells assessed as stimulation of cAMP accumulation incubated for 20 mins in presence of 0% HSA; format: functional, cell-based
[3] = target: T1, Glucagon-like peptide 1 receptor; assay: Ratio of EC50 for agonist activity at human GLP-1R expressed in HEK293 cells in presence of 4.4% HSA to EC50 for agonist activity at human GLP-1R expressed in HEK293 cells in presence of 0% HSA; format: cell-based
[4] = target: T1, Glucagon-like peptide 1 receptor; assay: Agonist activity at human GLP-1R expressed in HEK293 cells assessed as stimulation of cAMP accumulation incubated for 20 mins; format: functional, cell-based

EC50 [4] [nM]	Compound	also measured
	CC[C@H](C)[C@H](NC(=O)[C@H](CC(C)C)NC(=O)[C@H](Cc1c[nH]c2ccccc12)NC(=O)[C@H](CCC(=O)O)NC(=O)[C@@H](NC(=O)[C@H](Cc1ccccc1)NC(=O)[C@@H]1CSC2CC(=O)N(CCC(=O)NC(C(=O)NCCCCCCNC(=O)COCCOCCNC(=O)CCC(NC(=O)CCCCCCCCCCCCCCCCC(=O)O)C(=O)O)CCCCNC(=O)CCN3C(=O)CC(SC[C@H](NC(=O)[C@H](Cc4ccc(O)cc4)NC(=O)[C@H](CCC(=O)O)NC(=O)[C@@H](NC(=O)[C@@H](NC(=O)[C@H](CC(=O)O)NC(=O)[C@H](CC(N)=O)NC(=O)[C@@H](NC(=O)[C@H](Cc4ccc(O)cc4)NC(=O)[C@@H](NC(=O)CNC(=O)[C@H](CCC(=O)O)NC(=O)C(C)(C)NC(=O)[C@@H](N)Cc4c[nH]cn4)[C@@H](C)O)[C@@H](C)O)C(C)C)[C@@H](C)O)C(=O)N[C@@H](CCC(=O)O)C(=O)N[C@@H](CCC(=O)O)C(=O)N[C@@H](CCC(=O)O)C(=O)N[C@@H](C)C(=O)N[C@@H](C)C(=O)N[C@@H](CCCCN)C(=O)N1)C3=O)C2=O)[C@@H](C)CC)C(=O)N[C@@H](CCCCN)C(=O)NCC(=O)N[C@@H](CCCCN)C(=O)N1CCC[C@H]1C(=O)N[C@@H](CO)C(=O)N[C@@H](CO)C(=O)NCC(=O)N[C@@H](C)C(=O)N1CCC[C@H]1C(=O)N1CCC[C@H]1C(=O)N1CCC[C@H]1C(=O)N[C@@H](CO)C(N)=O (stereo not given in full) (HELM PEPTIDE1{H.[Aib].E.G.T.Y.T.N.D.V.T.E.Y.C.E.E.E.A.A.K.C.F.I.E.W.L.I.K.G.K.P.S.S.G.A.P.P.P.S.[am]}|CHEM1{[O=C(O)CCCCCCCCCCCCCCCCC(=O)NC(CCC(=O)NCCOCCOCC(=O)NCCCCCCNC(=O)C(CCCCNC(=O)CCN1C(=O)CC([*:1])C1=O)NC(=O)CCN1C(=O)CC([*:2])C1=O)C(=O)O]}$PEPTIDE1,CHEM1,14:R3-1:R1|PEPTIDE1,CHEM1,21:R3-1:R2$$$V2.0)	EC50 [1]: 5.9 nM; EC50 [2]: 0.1 nM; Ratio EC50 [3]: 59
	CC[C@H](C)[C@H](NC(=O)[C@H](CC(C)C)NC(=O)[C@H](Cc1c[nH]c2ccccc12)NC(=O)[C@H](CCC(=O)O)NC(=O)[C@@H](NC(=O)[C@H](Cc1ccccc1)NC(=O)[C@@H]1CSC2CC(=O)N(CCC(=O)NC(C(=O)NCCCCCCNC(=O)COCCOCCNC(=O)CCCCCCCCCCCCCCCCC(=O)O)CCCCNC(=O)CCN3C(=O)CC(SC[C@H](NC(=O)[C@H](Cc4ccc(O)cc4)NC(=O)[C@H](CCC(=O)O)NC(=O)[C@@H](NC(=O)[C@@H](NC(=O)[C@H](CC(=O)O)NC(=O)[C@H](CC(N)=O)NC(=O)[C@@H](NC(=O)[C@H](Cc4ccc(O)cc4)NC(=O)[C@@H](NC(=O)CNC(=O)[C@H](CCC(=O)O)NC(=O)C(C)(C)NC(=O)[C@@H](N)Cc4c[nH]cn4)[C@@H](C)O)[C@@H](C)O)C(C)C)[C@@H](C)O)C(=O)N[C@@H](CCC(=O)O)C(=O)N[C@@H](CCC(=O)O)C(=O)N[C@@H](CCC(=O)O)C(=O)N[C@@H](C)C(=O)N[C@@H](C)C(=O)N[C@@H](CCCCN)C(=O)N1)C3=O)C2=O)[C@@H](C)CC)C(=O)N[C@@H](CCCCN)C(=O)NCC(=O)N[C@@H](CCCCN)C(=O)N1CCC[C@H]1C(=O)N[C@@H](CO)C(=O)N[C@@H](CO)C(=O)NCC(=O)N[C@@H](C)C(=O)N1CCC[C@H]1C(=O)N1CCC[C@H]1C(=O)N1CCC[C@H]1C(=O)N[C@@H](CO)C(N)=O (stereo not given in full) (HELM PEPTIDE1{H.[Aib].E.G.T.Y.T.N.D.V.T.E.Y.C.E.E.E.A.A.K.C.F.I.E.W.L.I.K.G.K.P.S.S.G.A.P.P.P.S.[am]}|CHEM1{[O=C(O)CCCCCCCCCCCCCCCCC(=O)NCCOCCOCC(=O)NCCCCCCNC(=O)C(CCCCNC(=O)CCN1C(=O)CC([*:1])C1=O)NC(=O)CCN1C(=O)CC([*:2])C1=O]}$PEPTIDE1,CHEM1,14:R3-1:R1|PEPTIDE1,CHEM1,21:R3-1:R2$$$V2.0)	EC50 [1]: 1.3 nM; EC50 [2]: 0.11 nM; Ratio EC50 [3]: 11.8
0.68	CC[C@H](C)[C@H](NC(=O)[C@H](CS)NC(=O)[C@H](Cc1c[nH]c2ccccc12)NC(=O)[C@H](CCC(=O)O)NC(=O)[C@@H](NC(=O)[C@H](Cc1ccccc1)NC(=O)[C@H](CCC(=O)O)NC(=O)[C@H](CCCCN)NC(=O)[C@H](CS)NC(=O)[C@H](C)NC(=O)[C@H](CCC(=O)O)NC(=O)[C@H](CCC(=O)O)NC(=O)[C@H](CCC(=O)O)NC(=O)[C@H](CC(C)C)NC(=O)[C@H](Cc1ccc(O)cc1)NC(=O)[C@H](CCC(=O)O)NC(=O)[C@@H](NC(=O)[C@@H](NC(=O)[C@H](CC(=O)O)NC(=O)[C@H](CC(N)=O)NC(=O)[C@@H](NC(=O)[C@H](Cc1ccc(O)cc1)NC(=O)[C@@H](NC(=O)CNC(=O)[C@H](CCC(=O)O)NC(=O)C(C)(C)NC(=O)[C@@H](N)Cc1c[nH]cn1)[C@@H](C)O)[C@@H](C)O)C(C)C)[C@@H](C)O)[C@@H](C)CC)C(=O)N[C@@H](CCCCN)C(=O)NCC(=O)N[C@@H](CCCCN)C(N)=O (HELM PEPTIDE1{H.[Aib].E.G.T.Y.T.N.D.V.T.E.Y.L.E.E.E.A.C.K.E.F.I.E.W.C.I.K.G.K.[am]}$$$$V2.0)	
0.33	CC[C@H](C)[C@H](NC(=O)[C@H](CC(C)C)NC(=O)[C@H](CS)NC(=O)[C@H](CCC(=O)O)NC(=O)[C@@H](NC(=O)[C@H](Cc1ccccc1)NC(=O)[C@H](CCC(=O)O)NC(=O)[C@H](CCCCN)NC(=O)[C@H](C)NC(=O)[C@H](CS)NC(=O)[C@H](CCC(=O)O)NC(=O)[C@H](CCC(=O)O)NC(=O)[C@H](CCC(=O)O)NC(=O)[C@H](CC(C)C)NC(=O)[C@H](Cc1ccc(O)cc1)NC(=O)[C@H](CCC(=O)O)NC(=O)[C@@H](NC(=O)[C@@H](NC(=O)[C@H](CC(=O)O)NC(=O)[C@H](CC(N)=O)NC(=O)[C@@H](NC(=O)[C@H](Cc1ccc(O)cc1)NC(=O)[C@@H](NC(=O)CNC(=O)[C@H](CCC(=O)O)NC(=O)C(C)(C)NC(=O)[C@@H](N)Cc1c[nH]cn1)[C@@H](C)O)[C@@H](C)O)C(C)C)[C@@H](C)O)[C@@H](C)CC)C(=O)N[C@@H](CCCCN)C(=O)NCC(=O)N[C@@H](CCCCN)C(N)=O (HELM PEPTIDE1{H.[Aib].E.G.T.Y.T.N.D.V.T.E.Y.L.E.E.E.C.A.K.E.F.I.E.C.L.I.K.G.K.[am]}$$$$V2.0)	
0.13	H-H[Aib]EGTYTNDVCEYLEEECAKEFIEWLIKGKPSSGAPPSKKKKKK-NH2 (cysteines drawn unpaired)	
0.16	H-H[Aib]EGTYTNDVTECLEEEAACEFIEWLIKGKPSSGAPPSKKKKKK-NH2 (cysteines drawn unpaired)	
0.17	H-H[Aib]EGTYTNDVTEYLCEEAAKECIEWLIKGKPSSGAPPSKKKKKK-NH2 (cysteines drawn unpaired)	
0.12	H-H[Aib]EGTYTNDVTEYLECEAAKEFCEWLIKGKPSSGAPPSKKKKKK-NH2 (cysteines drawn unpaired)	
0.23	H-H[Aib]EGTYTNDVTEYLEEEAACEFIEWLCKGKPSSGAPPSKKKKKK-NH2 (cysteines drawn unpaired)	
0.13	H-H[Aib]EGTYTNDVTEYLEEEAAKECIEWLIKCKPSSGAPPSKKKKKK-NH2 (cysteines drawn unpaired)	
0.15	H-H[Aib]EGTYTNDVTEYLEEEACKEFIEWCIKGKPSSGAPPSKKKKKK-NH2 (cysteines drawn unpaired)	
0.1	H-H[Aib]EGTYTNDVTEYLEEECAKEFIECLIKGKPSSGAPPSKKKKKK-NH2 (cysteines drawn unpaired)	
0.073	H-H[Aib]EGTY[Thr(3ξ)]NDV[Thr(3ξ)]EYLEECAAKEFICWLIKGKPSSGAPPSKKKKKK-NH2 (cysteines drawn unpaired)	
0.23	H-H[Aib]EG[Thr(3ξ)]YTNDVTEYLEEEAAKEFCEWLIKGCPSSGAPPSKKKKKK-NH2 (cysteines drawn unpaired)	
0.11	H-[αMeH]AEGTYTNDVTCYLEEEACKEFIEWLIKGKPSSGAPPSKKKKKK-NH2 (cysteines drawn unpaired)	

Compound	EC50 [4] [nM]	also measured
CC[C@H](C)[C@H](NC(=O)[C@H](CC(C)C)NC(=O)[C@H](CS)NC(=O)[C@H](CCC(=O)O)NC(=O)[C@@H](NC(=O)[C@H](Cc1ccccc1)NC(=O)[C@H](CCC(=O)O)NC(=O)[C@H](CCCCN)NC(=O)[C@H](C)NC(=O)[C@H](CS)NC(=O)[C@H](CCC(=O)O)NC(=O)[C@H](CCC(=O)O)NC(=O)[C@H](CCC(=O)O)NC(=O)[C@H](CC(C)C)NC(=O)[C@H](Cc1ccc(O)cc1)NC(=O)[C@H](CCC(=O)O)NC(=O)[C@@H](NC(=O)[C@@H](NC(=O)[C@H](CC(=O)O)NC(=O)[C@H](CC(N)=O)NC(=O)[C@@H](NC(=O)[C@H](Cc1ccc(O)cc1)NC(=O)[C@@H](NC(=O)CNC(=O)[C@H](CCC(=O)O)NC(=O)C(C)(C)NC(=O)[C@@H](N)Cc1c[nH]cn1)[C@@H](C)O)[C@@H](C)O)C(C)C)[C@@H](C)O)[C@@H](C)CC)C(=O)N[C@@H](CCCCN)C(=O)NCC(=O)N[C@@H](CCCCN)C(=O)N1CCC[C@H]1C(=O)N[C@@H](CO)C(=O)N[C@@H](CO)C(=O)NCC(=O)N[C@@H](C)C(=O)N1CCC[C@H]1C(=O)N1CCC[C@H]1C(=O)N1CCC[C@H]1C(=O)N[C@@H](CO)C(N)=O (HELM PEPTIDE1{H.[Aib].E.G.T.Y.T.N.D.V.T.E.Y.L.E.E.E.C.A.K.E.F.I.E.C.L.I.K.G.K.P.S.S.G.A.P.P.P.S.[am]}$$$$V2.0)	0.13	
